# In patent publication US20090156577A1, “7-AMINO ALKYLIDENYL-HETEROCYCLIC QUINOLONES AND NAPHTHYRIDONES” (priority 2004, published 2009):
# Read-outs that look alike come from different tables or passages of the source.
# System: pathogenic bacteria
# Experiment: MIC by microdilution broth method (NCCLS M7-A4), in vitro antibacterial activity
# Type: cell-based
# Procedure: Minimal inhibitory concentration (MIC) has been an indicator of in vitro antibacterial activity widely used in the art. The in vitro antimicrobial activity of the compounds was determined by the microdilution broth method following the test method from the National Committee for Clinical Laboratory Standards (NCCLS). This method is described in the NCCLS Document M7-A4, Vol. 17, No. 2, “Methods for Dilution Antimicrobial Susceptibility Test for Bacteria that Grow Aerobically—Fourth Edition”, which is incorporated herein by reference.
# In this method two-fold serial dilutions of drug in cation adjusted Mueller-Hinton broth are added to wells in microdilution trays. The test organisms are prepared by adjusting the turbidity of actively growing broth cultures so that the final concentration of test organism after it is added to the wells is approximately 5×10^4 CFU/well.
# Following inoculation of the microdilution trays, the trays are incubated at 35° C. for 16-20 hours and then read. […] The amount of growth in the wells containing the test compound is compared with the amount of growth in the growth-control wells (no test compound) used in each tray. As set forth in Table 5, compounds of the present invention were tested against a variety of pathogenic bacteria resulting in a range of activities depending on the organism tested.
# [1] = Staphylococcus aureus, Organism A: Staphylococcus aureus OC4172, read-out: MIC
# [2] = Streptococcus pneumoniae, ATCC49619, Organism E: Streptococcus pneumoniae ATCC 49619, read-out: MIC
# [3] = Streptococcus pneumoniae, Organism B: fluoroquinolone-resistant clinical isolate of Streptococcus pneumoniae (QRDR amino acid substitutions)
# [4] = Streptococcus pneumoniae, Organism C: fluoroquinolone-resistant clinical isolate of Streptococcus pneumoniae (QRDR amino acid substitutions)
# [5] = Streptococcus pneumoniae, Organism D: fluoroquinolone-resistant clinical isolate of Streptococcus pneumoniae (QRDR amino acid substitutions)
SMILES,MIC [1] [µg/mL],MIC [2] [µg/mL],MIC [3] [µg/mL],MIC [4] [µg/mL],MIC [5] [µg/mL]
"CN(C)CCNCC(Cl)=C1CCN(c2nc3c(cc2F)c(=O)c(C(=O)O)cn3C2CC2)CC1 [Compound 177, 7-{4-[1-Chloro-2-(2-dimethylamino-ethylamino)-ethylidene]-piperidin-1-yl}-1-cyclopropyl-6-fluoro-4-oxo-1,4-dihydro-[1,8]naphthyridine-3-carboxylic acid]",1,4,8,> 16,> 16
"C=CC(Cl)=C1CCN(c2nc3c(cc2F)c(=O)c(C(=O)O)cn3C2CC2)CC1 [Compound 178, 7-[4-(1-Chloro-allylidene)-piperidin-1-yl]-1-cyclopropyl-6-fluoro-4-oxo-1,4-dihydro-[1,8]naphthyridine-3-carboxylic acid]",0.5,4,1,8,4
"CCOC(=O)OCC(F)=C1CCN(c2nc3c(cc2F)c(=O)c(C(=O)O)cn3C2CC2)CC1 [Compound 179, 1-Cyclopropyl-7-[4-(2-ethoxycarbonyloxy-1-fluoro-ethylidene)-piperidin-1-yl]-6-fluoro-4-oxo-1,4-dihydro-[1,8]naphthyridine-3-carboxylic acid]",0.5,2,> 16,> 16,> 16
"CN(C)CC(Cl)=C1CCN(c2nc3c(cc2F)c(=O)c(C(=O)O)cn3C2CC2)CC1 [Compound 180, 7-[4-(1-Chloro-2-dimethylamino-ethylidene)-piperidin-1-yl]-1-cyclopropyl-6-fluoro-4-oxo-1,4-dihydro-[1,8]naphthyridine-3-carboxylic acid]",0.5,0.5,,8,2
"O=C(O)c1cn(C2CC2)c2nc(N3CCC(=C(Cl)CN4CCCCC4)CC3)c(F)cc2c1=O [Compound 181, 7-[4-(1-Chloro-2-piperidin-1-yl-ethylidene)-piperidin-1-yl]-1-cyclopropyl-6-fluoro-4-oxo-1,4-dihydro-[1,8]naphthyridine-3-carboxylic acid]",1,2,,> 16,8
"CN(C)CC(F)=C1CCN(c2nc3c(cc2F)c(=O)c(C(=O)O)cn3C2CC2)CC1 [Compound 182, 1-Cyclopropyl-7-[4-(2-dimethylamino-1-fluoro-ethylidene)-piperidin-1-yl]-6-fluoro-4-oxo-1,4-dihydro-[1,8]naphthyridine-3-carboxylic acid]",0.06,0.25,,1,2
"NCC(F)=C1CN(c2nc3c(cc2F)c(=O)c(C(=O)O)cn3-c2ccc(F)cc2F)C1 [Compound 183, 7-[3-(2-Amino-1-fluoro-ethylidene)-azetidin-1-yl]-1-(2,4-difluoro-phenyl)-6-fluoro-4-oxo-1,4-dihydro-[1,8]naphthyridine-3-carboxylic acid]",0.12,0.25,,2,2
"O=C(O)c1cn(-c2ccc(F)cc2F)c2nc(N3CCC(=CCO)CC3)c(F)cc2c1=O [Compound 185, 1-(2,4-Difluoro-phenyl)-6-fluoro-7-[4-(2-hydroxy-ethylidene)-piperidin-1-yl]-4-oxo-1,4-dihydro-[1,8]naphthyridine-3-carboxylic acid]",0.12,1,16,16,
"COc1c(N2CC(=C(Cl)CN)C2)c(F)cc2c(=O)c(C(=O)O)cn(C3CC3)c12 [Compound 189, 7-[3-(2-Amino-1-chloro-ethylidene)-azetidin-1-yl]-1-cyclopropyl-6-fluoro-8-methoxy-4-oxo-1,4-dihydro-quinoline-3-carboxylic acid]",< 0.12,2,4,2,4
"COc1c(N2CCC(=C(Cl)CN(C)C)CC2)c(F)cc2c(=O)c(C(=O)O)cn(C3CC3)c12 [Compound 191, 7-[4-(1-Chloro-2-dimethylamino-ethylidene)-piperidin-1-yl]-1-cyclopropyl-6-fluoro-8-methoxy-4-oxo-1,4-dihydro-quinoline-3-carboxylic acid]",0.25,0.5,8,8,2
"COc1c(N2CCC(=C(Cl)CN3CCCC3)CC2)c(F)cc2c(=O)c(C(=O)O)cn(C3CC3)c12 [Compound 193, 7-[4-(1-Chloro-2-pyrrolidin-1-yl-ethylidene)-piperidin-1-yl]-1-cyclopropyl-6-fluoro-8-methoxy-4-oxo-1,4-dihydro-quinoline-3-carboxylic acid]",0.12,0.5,8,8,2
"COc1c(N2CCC(=C(Cl)CN3CCCCC3)CC2)c(F)cc2c(=O)c(C(=O)O)cn(C3CC3)c12 [Compound 194, 7-[4-(1-Chloro-2-piperidin-1-yl-ethylidene)-piperidin-1-yl]-1-cyclopropyl-6-fluoro-8-methoxy-4-oxo-1,4-dihydro-quinoline-3-carboxylic acid]",0.12,0.5,2,4,1
"COc1c(N2CCC(=C(Cl)CN3CCOCC3)CC2)c(F)cc2c(=O)c(C(=O)O)cn(C3CC3)c12 [Compound 195, 7-[4-(1-Chloro-2-morpholin-4-yl-ethylidene)-piperidin-1-yl]-1-cyclopropyl-6-fluoro-8-methoxy-4-oxo-1,4-dihydro-quinoline-3-carboxylic acid]",0.12,1,8,8,2
"COc1c(N2CCC(=C(Cl)CNC(C)C)CC2)c(F)cc2c(=O)c(C(=O)O)cn(C3CC3)c12 [Compound 196, 7-[4-(1-Chloro-2-isopropylamino-ethylidene)-piperidin-1-yl]-1-cyclopropyl-6-fluoro-8-methoxy-4-oxo-1,4-dihydro-quinoline-3-carboxylic acid]",0.12,0.5,,4,2
"COc1c(N2CCC(=C(F)CN(C)C)CC2)c(F)cc2c(=O)c(C(=O)O)cn(C3CC3)c12 [Compound 199, 1-Cyclopropyl-7-[4-(2-dimethylamino-1-fluoro-ethylidene)-piperidin-1-yl]-6-fluoro-8-methoxy-4-oxo-1,4-dihydro-quinoline-3-carboxylic acid]",0.06,0.25,1,2,1
"COc1c(N2CCC(=C(CN)CCO)CC2)c(F)cc2c(=O)c(C(=O)O)cn(C3CC3)c12 [Compound 201, 7-[4-(1-Aminomethyl-3-hydroxy-propylidene)-piperidin-1-yl]-1-cyclopropyl-6-fluoro-8-methoxy-4-oxo-1,4-dihydro-quinoline-3-carboxylic acid]",0.12,0.5,,2,8
"C=C(C)CC(CN)=C1CCN(c2c(F)cc3c(=O)c(C(=O)O)cn(C4CC4)c3c2OC)CC1 [Compound 202, 7-[4-(1-Aminomethyl-3-methyl-but-3-enylidene)-piperidin-1-yl]-1-cyclopropyl-6-fluoro-8-methoxy-4-oxo-1,4-dihydro-quinoline-3-carboxylic acid]",0.5,2,16,16,8
"C=CCC(CN)=C1CCN(c2c(F)cc3c(=O)c(C(=O)O)cn(C4CC4)c3c2OC)CC1 [Compound 203, 7-[4-(1-Aminomethyl-but-3-enylidene)-piperidin-1-yl]-1-cyclopropyl-6-fluoro-8-methoxy-4-oxo-1,4-dihydro-quinoline-3-carboxylic acid]",0.06,0.12,0.06,1,0.5
"COc1c(N2CCC(=C(Br)CN)CC2)c(F)cc2c(=O)c(C(=O)O)cn(C3CC3)c12 [Compound 204, 7-[4-(2-Amino-1-bromo-ethylidene)-piperidin-1-yl]-1-cyclopropyl-6-fluoro-8-methoxy-4-oxo-1,4-dihydro-quinoline-3-carboxylic acid]",0.25,0.12,0.5,0.5,0.5
"NCC(Cl)=C1CN(c2c(F)cc3c(=O)c(C(=O)O)cn(C4CC4)c3c2OC(F)F)C1 [Compound 205, 7-[3-(2-Amino-1-chloro-ethylidene)-azetidin-1-yl]-1-cyclopropyl-8-difluoromethoxy-6-fluoro-4-oxo-1,4-dihydro-quinoline-3-carboxylic acid]",0.25,0.5,2,8,4
"CN(CC(Cl)=C1CCN(c2c(F)cc3c(=O)c(C(=O)O)cn(C4CC4)c3c2OC(F)F)CC1)Cc1ccccc1 [Compound 206, 7-{4-[2-(Benzyl-methyl-amino)-1-chloro-ethylidene]-piperidin-1-yl}-1-cyclopropyl-8-difluoromethoxy-6-fluoro-4-oxo-1,4-dihydro-quinoline-3-carboxylic acid]",1,4,,4,4
